Experimental data taken from patent publication US8071776B2, “Thienopyridines as allosteric potentiators of the M4 muscarinic receptor” (Eli Lilly and Company, priority 2004, dated 2011).
Several values for one entry are separate records, joined by “and”; a condition that tells them apart may be missing. Identical values can stand only once.

Columns and labels:
[1] = biological target: T1, hM5 receptors (Homo sapiens, UniProt P08912); test: Calcium mobilization (FLIPR), ACh concentration-response curves, CHO hM5 cells; format: cell-based; conditions: CHO cells stably expressing hM5
T1 construct: expressed in transfected cells
T1 sequence (P08912 1-532): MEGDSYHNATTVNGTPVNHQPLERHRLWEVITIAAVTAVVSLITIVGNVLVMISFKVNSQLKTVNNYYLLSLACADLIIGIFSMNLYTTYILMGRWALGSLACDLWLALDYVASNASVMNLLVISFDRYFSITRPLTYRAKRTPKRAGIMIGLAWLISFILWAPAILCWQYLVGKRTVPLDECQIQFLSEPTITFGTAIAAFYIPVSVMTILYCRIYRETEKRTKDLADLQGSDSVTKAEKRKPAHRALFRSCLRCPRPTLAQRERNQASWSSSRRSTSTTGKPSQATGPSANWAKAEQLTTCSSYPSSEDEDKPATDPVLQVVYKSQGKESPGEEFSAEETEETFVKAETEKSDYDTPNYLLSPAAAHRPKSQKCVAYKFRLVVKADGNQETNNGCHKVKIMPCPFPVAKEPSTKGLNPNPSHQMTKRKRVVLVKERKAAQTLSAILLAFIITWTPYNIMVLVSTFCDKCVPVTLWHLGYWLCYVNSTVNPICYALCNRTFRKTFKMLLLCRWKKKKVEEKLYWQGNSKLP
Method: (§1) Automated multiple compound additions are timed by computer program. Cells are pre-incubated with increasing concentration of compounds.

[2] = biological target: hM2 receptors (Homo sapiens, UniProt P08172); conditions: AV12 Gα15 hM2; too modest to be accurately estimated
Chain of hM2 receptors (P08172 whole entry): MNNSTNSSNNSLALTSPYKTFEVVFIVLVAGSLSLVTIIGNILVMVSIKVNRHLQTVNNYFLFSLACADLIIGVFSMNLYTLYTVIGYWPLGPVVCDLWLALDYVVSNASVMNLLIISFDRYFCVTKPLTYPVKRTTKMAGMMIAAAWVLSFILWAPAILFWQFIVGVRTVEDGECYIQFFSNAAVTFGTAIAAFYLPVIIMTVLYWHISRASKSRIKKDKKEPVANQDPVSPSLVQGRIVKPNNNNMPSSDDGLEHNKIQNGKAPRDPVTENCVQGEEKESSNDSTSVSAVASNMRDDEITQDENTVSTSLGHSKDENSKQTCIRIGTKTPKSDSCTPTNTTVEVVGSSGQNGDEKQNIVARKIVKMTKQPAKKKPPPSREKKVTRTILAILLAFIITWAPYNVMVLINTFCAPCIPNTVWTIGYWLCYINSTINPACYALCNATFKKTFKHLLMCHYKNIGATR
Method: Using a calcium-sensitive fluorescent dye, agonist or potentiation activity of a given compound can be detected in a single assay using a Fluorescence Light Imaging Plate Reader (FLIPR) instrument. Cells are plated in Poly-D-Lysine coated black plates/clear bottom (Becton Dickinsons) at 40,000 cells per ml (100 μl/well) in growth media 24 hours prior to running the assay. The medium is removed before the addition of 50 μl fluorescence dye solution (HBSS containing 20 mM Hepes, 10 μM Fluo-3-AM, 0.05% pluronic acid F127; supplemented with 2.5 mM probenecid for CHO cell assays). The cells are incubated with the dye for 75 minutes before replacing with assay buffer (20 mM Hepes in Hanks balanced salt solution (Gibco); supplemented with 2.5 mM probenecid for CHO cells). The plate is transferred to the FLIPR machine (Molecular Devices) for fluorescence recordings. The cells are periodically excited by 488 nm light, and the emitted fluorescent light passed through a 510-570 nm filter and then detected by a cooled CCD camera. Automated multiple compound additions are timed by computer program. Cells are pre-incubated with increasing concentration of compounds. After 2 minutes, a range of acetylcholine concentrations is added to each concentration of compound. […]

[3] = biological target: T2, hM1 receptors (Homo sapiens, UniProt P11229); test: Calcium mobilization (FLIPR), ACh concentration-response curves, CHO hM1 cells; format: cell-based; conditions: CHO cells stably expressing hM1
T2 construct: expressed in transfected cells
T2 sequence (P11229 1-460): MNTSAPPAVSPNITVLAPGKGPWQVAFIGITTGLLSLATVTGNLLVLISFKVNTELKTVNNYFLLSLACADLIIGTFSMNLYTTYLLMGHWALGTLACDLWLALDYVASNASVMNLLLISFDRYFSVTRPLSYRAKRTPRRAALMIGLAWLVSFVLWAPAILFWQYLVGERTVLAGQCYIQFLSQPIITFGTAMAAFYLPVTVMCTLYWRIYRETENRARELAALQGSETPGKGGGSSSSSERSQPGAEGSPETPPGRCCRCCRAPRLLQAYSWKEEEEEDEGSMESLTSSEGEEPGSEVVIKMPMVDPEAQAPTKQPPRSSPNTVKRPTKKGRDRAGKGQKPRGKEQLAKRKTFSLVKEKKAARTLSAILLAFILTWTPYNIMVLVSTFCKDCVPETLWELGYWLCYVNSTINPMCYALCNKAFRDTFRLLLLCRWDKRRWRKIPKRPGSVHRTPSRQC
Method: as §1

[4] = biological target: T3, hM4 receptors (Homo sapiens, UniProt P08173); test: Calcium mobilization (FLIPR), ACh concentration-response curves, AV12 Gα15 hM4 cells; format: cell-based
T3 construct: expressed in transfected cells
T3 sequence (P08173 1-479): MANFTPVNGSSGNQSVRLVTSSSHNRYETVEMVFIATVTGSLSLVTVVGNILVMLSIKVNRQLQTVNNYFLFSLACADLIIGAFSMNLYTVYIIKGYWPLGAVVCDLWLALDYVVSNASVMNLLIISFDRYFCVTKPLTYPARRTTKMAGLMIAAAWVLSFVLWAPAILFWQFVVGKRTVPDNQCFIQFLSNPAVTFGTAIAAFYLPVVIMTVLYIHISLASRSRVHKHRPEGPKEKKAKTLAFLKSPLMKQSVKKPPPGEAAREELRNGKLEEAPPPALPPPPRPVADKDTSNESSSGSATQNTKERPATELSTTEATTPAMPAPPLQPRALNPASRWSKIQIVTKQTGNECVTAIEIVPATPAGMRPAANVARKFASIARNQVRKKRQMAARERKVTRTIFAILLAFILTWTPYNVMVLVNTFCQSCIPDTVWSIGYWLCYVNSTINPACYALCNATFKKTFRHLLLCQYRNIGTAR
Method: as §1

[5] = biological target: T4, hM3 receptors (Homo sapiens, UniProt P20309); test: Calcium mobilization (FLIPR), ACh concentration-response curves, CHO hM3 cells; format: cell-based; conditions: CHO cells stably expressing hM3
T4 construct: expressed in transfected cells
T4 sequence (P20309 whole entry): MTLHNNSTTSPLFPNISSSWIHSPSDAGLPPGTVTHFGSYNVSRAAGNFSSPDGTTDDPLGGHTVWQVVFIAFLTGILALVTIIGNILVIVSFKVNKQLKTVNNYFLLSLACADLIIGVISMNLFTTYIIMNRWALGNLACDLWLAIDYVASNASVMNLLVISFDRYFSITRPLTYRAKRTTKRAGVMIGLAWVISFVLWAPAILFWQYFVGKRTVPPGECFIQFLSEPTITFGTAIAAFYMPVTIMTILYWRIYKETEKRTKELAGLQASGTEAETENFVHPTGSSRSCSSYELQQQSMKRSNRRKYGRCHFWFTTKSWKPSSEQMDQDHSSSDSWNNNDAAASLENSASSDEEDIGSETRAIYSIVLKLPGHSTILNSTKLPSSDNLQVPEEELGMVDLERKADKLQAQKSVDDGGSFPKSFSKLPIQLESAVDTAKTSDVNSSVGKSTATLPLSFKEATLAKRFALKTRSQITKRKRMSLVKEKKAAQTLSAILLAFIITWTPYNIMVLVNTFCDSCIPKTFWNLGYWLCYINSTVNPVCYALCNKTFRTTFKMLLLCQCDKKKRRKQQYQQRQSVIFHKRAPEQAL
Method: as §1

[6] = test system: Male Fisher-344 rats; test: Conditioned avoidance response; format: in vivo, rat
Source text: The apparatus is a Coulbourn Instruments shuttle operant chamber. Each session equals a total of 50 trials, presented on a 30 second inter-trial interval, and each trial begins with simultaneous illumination of a houselight and rising of a guillotine door. The rat is given 10 seconds to cross over to the other side (an avoidance response) before a 1 mA footshock is initiated. The shock remains on until the rat crosses over to the other side (an escape response) or 10 seconds has elapsed (an escape failure). […] The number of avoidance, escape and escape failure responses during each session is recorded and used for analysis.
Each test compound is administered orally 2 hours prior to testing. Oxo (0.03 mg/kg) is administered subcutaneously 30 minutes prior to testing. Data are analyzed via a one-way (within-group design) Analysis of Variance (ANOVA). In cases of a significant ANOVA (p<0.05), post-hoc comparisons may be made in which compound doses are compared back to the Oxo alone group (paired t-test).

**Q.** How did the “allosteric effect on ACh response” value [1] turn out when `COc1nc2sc(C(=O)NC3CC3)c(N)c2c(C)c1Cl` [Example 1, 3-Amino-5-chloro-6-methoxy-4-methyl-thieno[2,3-b]pyridine-2-carboxylic acid cyclopropylamide] was run?
**A.** No significant allosteric effect

**Q.** And the “allosteric effect on ACh response” value [2]?
**A.** modest allosteric effect

**Q.** And the “allosteric effect on ACh response” value [3]?
**A.** No significant allosteric effect

**Q.** And the Kd [4]?
**A.** 200 ± 42 nM

**Q.** And the “potentiation of acetylcholine versus carbachol” value ([4]; FLIPR, both non-selective full muscarinic agonists, receptor subtype not given)?
**A.** potentiated in an equivalent fashion

**Q.** What about the “cooperatively factor for hM4 receptors” value ([4]; estimated, FLIPR, ACh curves, AV12 Gα15 hM4, duplicates, at least three experiments) of the same molecule?
**A.** 34.5±3.5

**Q.** And the “allosteric effect on ACh response” value [5]?
**A.** No significant allosteric effect

**Q.** How did the “Percent Avoidance Response (Mean ± S.E.M.), Oxo + Test Compound 10 mg/kg” value ([6]; test compound 10 mg/kg orally 2 hours prior, Oxo 0.03 mg/kg s.c. 30 minutes prior) turn out when `Cc1c(Cl)c(OCCN2CCOCC2)nc2sc(C(=O)NC3CC3)c(N)c12` [Example 6, 3-Amino-5-chloro-4-methyl-6-(2-morpholin-4-yl-ethoxy)-thieno[2,3-b]pyridine-2-carboxylic acid cyclopropylamide] was run?
**A.** 90 ± 3.4%

**Q.** For `Cc1c(Cl)c(OCC(=O)N2CCN(C)CC2)nc2sc(C(=O)NC3CC3)c(N)c12` [Example 10], which “Percent Avoidance Response (Mean ± S.E.M.), Oxo + Test Compound 10 mg/kg” value ([6]; rat, in vivo) is on record?
**A.** 85 ± 5.3%

**Q.** `Cc1c(Cl)c(OCCN2CCOCC2)nc2sc(C(=O)NC3CC3)c(N)c12.Cl` [Example 28, 3-Amino-5-chloro-4-methyl-6-(2-morpholin-4-yl-ethoxy)-thieno[2,3-b]pyridine-2-carboxylic acid cyclopropylamide hydrochloride] was tested. Which “Percent Avoidance Response (Mean ± S.E.M.), Oxo + Test Compound 30 mg/kg” value ([6]; test compound 30 mg/kg orally 2 hours prior, Oxo 0.03 mg/kg s.c. 30 minutes prior) did it give?
**A.** 84 ± 6.3%

**Q.** Which results are given for oxotremorine sesquifumarate?
**A.** Percent Avoidance Response (Mean ± S.E.M.), Oxo alone ([6]; Oxo 0.03 mg/kg subcutaneously 30 minutes prior to testing, first Oxo alone group): 93 ± 1.8% and 93 ± 1.2% and 89 ± 3.8% and 92 ± 1.5%; Percent Avoidance Response (Mean ± S.E.M.), Oxo alone (retest) ([6]; retest of Oxo alone, 0.03 mg/kg subcutaneously 30 minutes prior to testing, 0.03 mg/kg): 91 ± 0.9% and 90 ± 2.5% and 89 ± 3.2% and 91 ± 2.0%
